The supplement of paper PMC10307832

Legend:
Test in all cases: relative viability (nuclei count vs DMSO), 5 days (fraction); higher = more cells survive
[1] = compound: CCOC1=CC=CC=C1N=NC2=C(NN(C2=O)C3=NC(=CS3)C4=CC=CC=C4)C [BAM7] + N=C(N)NC(=N)NCCc1ccccc1 [Phenformin] (partner 250 µM)
How it was run: (§1)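 Each reported value is a median over duplicate plates. It expresses relative viability: treated-well nuclei count divided by vehicle-well nuclei count. Lung cancer cell lines in 1536-well plates were dosed by pin tool a day after seeding, alone with one drug or with a fixed anchor-drug dose plus five library-drug doses (not always all listed) in √10 steps, and nuclei were counted after 5 days.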

[2] = compound: CCn1c(-c2nonc2N)nc2c(C#CC(C)(C)O)ncc(OC[C@H]3CCCNC3)c21 + CC1(C)CCC(c2ccc(Cl)cc2)=C(CN2CCN(c3ccc(C(=O)NS(=O)(=O)c4ccc(N[C@H](CCN5CCOCC5)CSc5ccccc5)c(S(=O)(=O)C(F)(F)F)c4)cc3)CC2)C1 [Navitoclax] (partner 0.5 µM)
How it was run: as §1

[3] = compound: CCOC1=CC=CC=C1N=NC2=C(NN(C2=O)C3=NC(=CS3)C4=CC=CC=C4)C [BAM7] + CC(=O)Nc1cccc(-n2c(=O)n(C3CC3)c(=O)c3c(Nc4ccc(I)cc4F)n(C)c(=O)c(C)c32)c1 [Trametinib] (partner 0.02 µM)
How it was run: as §1

[4] = compound: CCOC1=CC=CC=C1N=NC2=C(NN(C2=O)C3=NC(=CS3)C4=CC=CC=C4)C [BAM7] + Nc1ncn([C@H]2C[C@H](O)[C@@H](CO)O2)c(=O)n1 [Decitabine] (partner 2 µM)
How it was run: as §1

Cell Line | relative viability ([1]; first compound 0.5 µM) | relative viability ([1]; first compound 5 µM) | relative viability ([1]; first compound 15.81 µM) | relative viability ([1]; first compound 50 µM) | relative viability ([2]; first compound 0.01 µM) | relative viability ([2]; first compound 0.03162 µM) | relative viability ([2]; first compound 0.1 µM) | relative viability ([2]; first compound 0.3162 µM) | relative viability ([2]; first compound 1 µM) | relative viability ([3]; first compound 0.5 µM) | relative viability ([3]; first compound 5 µM) | relative viability ([3]; first compound 15.81 µM) | relative viability ([3]; first compound 50 µM) | relative viability ([4]; first compound 0.5 µM) | relative viability ([4]; first compound 5 µM) | relative viability ([4]; first compound 15.81 µM) | relative viability ([4]; first compound 50 µM)
NCI-H1650 | 0.473 | 0.501 | 0.484 | 0.472 | 1.2 | 1.04 | 1.03 | 0.894 | 1.13 | 0.607 | 0.467 | 0.578 | 0.727 | 0.39 | 0.409 | 0.431 | 0.38
BEN | 0.257 | 0.248 | 0.286 | 0.294 | 0.0596 | 0.0766 | 0.0603 | 0.0534 | 0.0741 | 1.04 | 1.1 | 0.851 | 1.05 | 0.726 | 0.741 | 0.673 | 0.905
EMC-BAC-2 | 0.567 | 0.533 | 0.535 | 0.61 | 1.17 | 1.18 | 1.15 | 1.07 | 1.13 | 0.941 | 0.944 | 0.941 | 1.02 | 0.973 | 1.05 | 1.01 | 1.12
LU99A | 0.802 | 0.819 | 0.896 | 0.94 | 0.714 | 0.959 | 0.841 | 0.776 | 0.807 | 0.54 | 0.548 | 0.552 | 0.575 | 0.81 | 0.95 | 0.933 | 0.876
ABC-1 | 0.223 | 0.237 | 0.247 | 0.266 |  |  |  |  |  |  |  |  |  | 1.06 | 0.983 | 1.34 | 1.06
NCI-H2170 | 0.385 | 0.362 | 0.388 | 0.371 | 0.613 | 0.585 | 0.64 | 0.493 | 0.529 | 0.917 | 0.799 | 0.814 | 0.816 | 0.411 | 0.436 | 0.405 | 0.432
NCI-H1299 |  |  |  |  | 1.04 | 1.06 | 1.02 | 1.03 | 1.08 |  |  |  |  |  |  |  | 
EBC-1 |  |  |  |  | 0.393 | 0.433 | 0.358 | 0.235 | 0.188 |  |  |  |  |  |  |  | 
NCI-H2347 | 0.622 | 0.31 |  | 0.37 | 0.849 | 0.751 | 0.813 | 0.796 | 0.882 | 0.326 | 0.32 | 0.277 | 0.287 | 0.598 | 0.736 | 0.641 | 0.606
NCI-H1993 | 0.575 | 0.617 | 0.533 | 0.543 | 0.943 | 1.01 | 1.04 | 0.767 | 0.961 | 0.456 | 0.524 | 0.479 | 0.506 | 0.582 | 0.633 | 0.498 | 0.551
